ChEMBL document CHEMBL3045095, “Synthesis and biological evaluation of some Schiff bases of 4-amino-5-(4-methylsulfonyl)benzyl-2,4-dihydro-3H-[1,2,4]-triazole-3-thione” (Med Chem Res, 2013)
Values after ≈ are worked out from the molar mass of the structure shown. Active and inactive are the calls of the source. The calls are words filed in the database; no cut-off is given here.

Assays:
HeLa [1] = assay: Cytotoxicity against Homo sapiens (human) HeLa cells after 48 hr by MTT assay; assay type: functional, cell-based
HeLa [2] = assay: Cytotoxicity against Homo sapiens (human) HeLa cells assessed as cell death at 25 uM after 48 hr by MTT assay; assay type: functional
HeLa [3] = assay: Cytotoxicity against Homo sapiens (human) HeLa cells assessed as cell death at 100 uM after 48 hr by MTT assay; assay type: functional
Escherichia coli = assay: Antibacterial activity against Escherichia coli after 16 to 18 hr by serial dilution method; assay type: functional
Staphylococcus aureus = assay: Antibacterial activity against Staphylococcus aureus after 16 to 18 hr by serial dilution method; assay type: functional
Candida albicans = assay: Antifungal activity against Candida albicans after 16 to 18 hr by serial dilution method; assay type: functional
HeLa [4] = assay: Cytotoxicity against Homo sapiens (human) HeLa cells assessed as cell death at 50 uM after 48 hr by MTT assay; assay type: functional
HeLa [5] = assay: Cytotoxicity against Homo sapiens (human) HeLa cells assessed as cell death at 12.5 uM after 48 hr by MTT assay; assay type: functional
Pseudomonas aeruginosa = assay: Antibacterial activity against Pseudomonas aeruginosa after 16 to 18 hr by serial dilution method; assay type: functional
Bacillus cereus = assay: Antibacterial activity against Bacillus cereus after 16 to 18 hr by serial dilution method; assay type: functional
HeLa [6] = assay: Cytotoxicity against Homo sapiens (human) HeLa cells assessed as cell death at 2.5 uM after 48 hr by MTT assay; assay type: functional

SMILES	EC50 (HeLa [1]) [µM]	Activity (HeLa [2])	Activity (HeLa [3]) [%]	MIC (Escherichia coli) [µg/mL]	MIC (Staphylococcus aureus) [µg/mL]	MIC (Candida albicans) [µg/mL]	Activity (HeLa [4]) [%]	Activity (HeLa [5]) [%]	MIC (Pseudomonas aeruginosa) [µg/mL]	MIC (Bacillus cereus) [µg/mL]	Activity (HeLa [6]) [%]
CS(=O)(=O)c1ccc(Cc2n[nH]c(=S)n2/N=C/c2ccc(Cl)cc2)cc1	50	47.51%	57.04	12.5 (≈ 30.7 µM)	6.25 (≈ 15.4 µM)	1.56 (≈ 3.84 µM)	53.99	44.73	6.25 (≈ 15.4 µM)	6.25 (≈ 15.4 µM)	
CC1(C)S[C@@H]2[C@H](NC(=O)Cc3ccccc3)C(=O)N2[C@H]1C(=O)O [PENICILLIN G]				0.097 (≈ 0.29 µM)	0.097 (≈ 0.29 µM)				0.097 (≈ 0.29 µM)	0.097 (≈ 0.29 µM)	
CS(=O)(=O)c1ccc(Cc2n[nH]c(=S)n2/N=C/c2ccccc2F)cc1	> 100	14.03%	28.08	3.12 (≈ 8 µM)	6.25 (≈ 16 µM)	3.12 (≈ 8 µM)	21.9	16.48	6.25 (≈ 16 µM)	3.12 (≈ 8 µM)	
COc1cccc2c1C(=O)c1c(O)c3c(c(O)c1C2=O)C[C@@](O)(C(=O)CO)C[C@@H]3O[C@H]1C[C@H](N)[C@H](O)[C@H](C)O1 [DOXORUBICIN]	2.5										78.2
CS(=O)(=O)c1ccc(Cc2n[nH]c(=S)n2/N=C/c2cccs2)cc1	100	33.33%	61.09	3.12 (≈ 8.26 µM)	12.5 (≈ 33 µM)	3.12 (≈ 8.26 µM)	48.59	28.69	6.25 (≈ 16.5 µM)	12.5 (≈ 33 µM)	
CS(=O)(=O)c1ccc(Cc2n[nH]c(=S)n2/N=C/c2ccc(F)cc2)cc1	100	inactive	57.79	6.25 (≈ 16 µM)	12.5 (≈ 32 µM)	3.12 (≈ 8 µM)	26.25	2.8	6.25 (≈ 16 µM)	6.25 (≈ 16 µM)	
CSc1ccc(/C=N/n2c(Cc3ccc(S(C)(=O)=O)cc3)n[nH]c2=S)cc1	50	32.66%	71.86	3.12 (≈ 7.47 µM)	3.12 (≈ 7.47 µM)	3.12 (≈ 7.47 µM)	57.5	27.94	3.12 (≈ 7.47 µM)	3.12 (≈ 7.47 µM)	
CS(=O)(=O)c1ccc(Cc2n[nH]c(=S)n2/N=C/c2ccccc2Cl)cc1		36.26%	76.53	6.25 (≈ 15.4 µM)	12.5 (≈ 30.7 µM)	3.12 (≈ 7.68 µM)	42.65	34.65	3.12 (≈ 7.68 µM)	6.25 (≈ 15.4 µM)	
OC(Cn1cncn1)(Cn1cncn1)c1ccc(F)cc1F [FLUCONAZOLE]						0.78 (≈ 2.55 µM)					
COc1ccc2cc(/C=N/n3c(Cc4ccc(S(C)(=O)=O)cc4)n[nH]c3=S)ccc2c1	50	42.01%	64.6	6.25 (≈ 13.8 µM)	6.25 (≈ 13.8 µM)	6.25 (≈ 13.8 µM)	54.13	43.71	6.25 (≈ 13.8 µM)	6.25 (≈ 13.8 µM)	
CS(=O)(=O)c1ccc(Cc2n[nH]c(=S)n2/N=C/c2ccc(-c3ccccc3)cc2)cc1	50	37.32%	69.54	3.12 (≈ 6.97 µM)	6.25 (≈ 13.9 µM)	6.25 (≈ 13.9 µM)	61.56	30.44	6.25 (≈ 13.9 µM)	6.25 (≈ 13.9 µM)	
CS(=O)(=O)c1ccc(Cc2n[nH]c(=S)n2/N=C/c2c(F)cccc2Cl)cc1	25	55.32%	77.28	6.25 (≈ 14.7 µM)	6.25 (≈ 14.7 µM)	3.12 (≈ 7.35 µM)	70.55	49.84	3.12 (≈ 7.35 µM)	3.12 (≈ 7.35 µM)	
CS(=O)(=O)c1ccc(Cc2n[nH]c(=S)n2/N=C/c2cccnc2)cc1	> 100	19.36%	45.1	6.25 (≈ 16.7 µM)	6.25 (≈ 16.7 µM)	6.25 (≈ 16.7 µM)	14	16.89	6.25 (≈ 16.7 µM)	12.5 (≈ 33.5 µM)	
